Laboratory results: patent publication US11932657B2, “Heterocyclic compound” (priority 2018, dated 2024)

How the values were obtained:
[1] = molecular target: T1, aryl hydrocarbon receptor (AhR) (Homo sapiens, UniProt P35869); experiment: AhR reporter gene assay (aryl hydrocarbon receptor antagonist activity, DRE-Luc HepG2 cells, TCDD-stimulated luciferase); type: cell-based
T1 construct: DRE-Luc HepG2 cells subcultured in a 225 cm^2 flask; endogenous in cells; host or cells: HepG2 (ATCC), stably transfected with the reporter hCYP1A1/pGL4.27 (DRE-Luc HepG2)
T1 sequence (P35869 11-848): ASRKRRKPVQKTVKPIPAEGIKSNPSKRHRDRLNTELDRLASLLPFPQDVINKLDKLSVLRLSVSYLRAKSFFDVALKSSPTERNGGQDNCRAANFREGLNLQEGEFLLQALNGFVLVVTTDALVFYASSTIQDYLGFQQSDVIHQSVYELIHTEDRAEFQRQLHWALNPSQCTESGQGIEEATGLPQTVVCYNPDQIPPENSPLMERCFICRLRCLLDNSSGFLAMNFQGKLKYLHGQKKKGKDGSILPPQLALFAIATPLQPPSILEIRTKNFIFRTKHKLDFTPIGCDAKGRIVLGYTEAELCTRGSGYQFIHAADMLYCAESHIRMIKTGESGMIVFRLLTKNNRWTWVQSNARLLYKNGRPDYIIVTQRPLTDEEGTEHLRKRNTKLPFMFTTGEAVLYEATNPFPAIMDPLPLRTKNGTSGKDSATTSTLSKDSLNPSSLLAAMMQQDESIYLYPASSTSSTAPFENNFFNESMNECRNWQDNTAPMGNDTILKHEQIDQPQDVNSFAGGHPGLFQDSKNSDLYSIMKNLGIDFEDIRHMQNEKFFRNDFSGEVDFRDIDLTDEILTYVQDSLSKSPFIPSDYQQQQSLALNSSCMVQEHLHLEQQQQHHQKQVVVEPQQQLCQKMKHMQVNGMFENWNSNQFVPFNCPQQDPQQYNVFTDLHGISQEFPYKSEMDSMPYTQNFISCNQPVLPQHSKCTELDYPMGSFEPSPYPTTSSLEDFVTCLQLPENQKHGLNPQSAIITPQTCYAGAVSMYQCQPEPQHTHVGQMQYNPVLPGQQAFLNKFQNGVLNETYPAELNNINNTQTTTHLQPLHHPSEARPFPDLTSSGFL
Outline: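 HepG2 cells stably carrying a human CYP1A1 promoter/DRE-driven luciferase reporter were pretreated with compound for 24 h at 37°C. TCDD (5×10^−10 M in the added solution) was then added for a further 24 h. Firefly luciferase luminescence was read as the measure of antagonism.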

[2] = system: immortalized megakaryocyte line (SeV2-MKCL); experiment: Platelet production: static culturing of immortalized megakaryocyte line; type: cell-based; conditions: compound final concentration 0.1 μM, static culturing 6 to 7 days, control (DMSO) set to 1; platelets = CD41, CD42b and CD42a-positive cells
Outline: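 SeV2-MKCL cells, washed free of doxycycline to stop forced expression, seeded at 1×10^5 cells/mL in IMDM-based medium with compound (final 0.1 μM) or DMSO, static culture 6–7 days, 37° C., 5% CO2. CD41/CD42a/CD42b-positive platelets counted by bead-corrected flow cytometry; platelets per megakaryocyte expressed as fold over DMSO control.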

SMILES | IC50 [1] | Static (vs veh): fold increase of platelet production efficiency (PLT/MK) [2]
CC1(C)COc2nc3c(NCCc4ccc(O)c(-c5cccnc5)c4)nc(-c4cncc(F)c4)nc3n21 [Example 32, 4-[2-[[2-(5-fluoropyridin-3-yl)-8,8-dimethyl-7H-purino[8,9-b][1,3]oxazol-4-yl]amino]ethyl]-2-pyridin-3-ylphenol] | 29 nM | 6.8
CC1(C)COc2nc3c(NCCc4ccc(O)c(-c5c(F)cccc5F)c4)nc(-c4cncc(C#N)c4)nc3n21 [Example 45] | 11 nM | 2.4
CC1(C)COc2nc3c(NCCc4ccc(O)c(-c5cccc(C#N)c5F)c4)nc(-c4cncc(C#N)c4)nc3n21 [Example 67] | 2.4 nM | 2.9
CC1(C)COc2nc3c(NCCc4ccc(O)c(-c5cccc(C(F)(F)F)c5)c4)nc(-c4cncc(F)c4)nc3n21 [Example 16] | 3.9 nM | 10
CC1(C)CSc2nc3c(NCCc4ccc(O)c(-c5ccccc5F)c4)nc(-c4cncc(F)c4)nc3n21 [Example 8] | 0.11 nM | 5.1
CC1(C)CSc2nc3c(NCCc4ccc(O)c(-c5ccccc5F)c4)nc(-c4cncc(C#N)c4)nc3n21 [Example 38] | 0.49 nM | 4.9
Cc1cncc(-c2nc(NCCc3c[nH]c4ccccc34)c3nc4n(c3n2)C(C)(C)CS4)c1 [Example 96] | 39 nM | 2.7
CC1(C)COc2nc3c(NCCc4ccc(O)c(-c5c(F)cccc5F)c4)nc(-c4cncc(F)c4)nc3n21 [Example 44] | 3.5 nM | 3.4
C[C@@H]1CSc2nc3c(NCCc4ccc(O)c(-c5cccc(C#N)c5)c4)nc(-c4cncc(F)c4)nc3n21 [Example 58] | 0.46 nM | 5.1
CC1(C)COc2nc3c(NCCc4ccc(O)c(-c5ccc(Cl)cc5)c4)nc(-c4cncc(F)c4)nc3n21 [Example 7] | 9.1 nM | 7.3
CC1(C)COc2nc3c(NCCc4ccc(O)c(-c5cncc(F)c5)c4)nc(-c4cncc(F)c4)nc3n21 [Example 43, 2-(5-fluoropyridin-3-yl)-4-[2-[[2-(5-fluoropyridin-3-yl)-8,8-dimethyl-7H-purino[8,9-b][1,3]oxazol-4-yl]amino]ethyl]phenol] | 26 nM | 7.1
Cc1cncc(-c2nc(NCCc3ccc(O)c(-c4ccccc4)c3)c3nc4n(c3n2)C(C)(C)CO4)c1 [Example 22] | 9.8 nM | 7.3
CC1(C)COc2nc3c(NCCc4ccc(O)c(-c5csc6ccccc56)c4)nc(-c4cncc(F)c4)nc3n21 [Example 35] | 12 nM | 6.0
CC1(C)COc2nc3c(NCCc4ccc(O)c(-c5cccc(S(C)(=O)=O)c5)c4)nc(-c4cncc(F)c4)nc3n21 [Example 78] | 3.9 nM | 4.3
CC1(C)C[S+]([O-])c2nc3c(NCCc4ccc(O)c(-c5ccccc5F)c4)nc(-c4cncc(F)c4)nc3n21 (stereo not shown) [Example 20] | 0.058 nM | 6.5
CC1(C)CSc2nc3c(NCCc4ccc(O)c(-c5cccc(F)c5)c4)nc(-c4cncc(C#N)c4)nc3n21 [Example 37] | 0.53 nM | 2.1
C[C@H]1CSc2nc3c(NCCc4ccc(O)c(-c5ccccc5F)c4)nc(-c4cncc(F)c4)nc3n21 [Example 30] | 0.78 nM | 6.7
Fc1cncc(-c2nc(NCCc3c[nH]c4ccccc34)c3nc4n(c3n2)CCCS4)c1 [Example 109] | 11 nM | 7.8
CC1(C)COc2nc3c(NCCc4c[nH]c5ccccc45)nc(-c4cccnc4)nc3n21 [Example 94] | 39 nM | 2.6
C[C@@H]1COc2nc3c(NCCc4ccc(O)c(-c5cncc(C#N)c5)c4)nc(-c4cncc(F)c4)nc3n21 [Example 77] | 9.2 nM | 3.5
CC1(C)COc2nc3c(NCCc4ccc(O)c(-c5ccc(F)cc5F)c4)nc(-c4cncc(F)c4)nc3n21 [Example 42] | 6.1 nM | 4.8
C[C@@H]1CSc2nc3c(NCCc4ccc(O)c(-c5cncc(F)c5)c4)nc(-c4cncc(F)c4)nc3n21 [Example 71] | 4.7 nM | 7.2
CC1(C)COc2nc3c(NCCc4ccc(O)c(-c5cccc(C#N)c5)c4)nc(-c4ccc5nccn5c4)nc3n21 [Example 63] | 17 nM | 4.8
CC1(C)COc2nc3c(NCCc4ccc(O)c(-c5cccc(C#N)c5)c4)nc(-c4cncc(F)c4)nc3n21 [Example 17, 3-[5-[2-[[2-(5-fluoropyridin-3-yl)-8,8-dimethyl-7H-purino[8,9-b][1,3]oxazol-4-yl]amino]ethyl]-2-hydroxyphenyl]benzonitrile] | 2.3 nM | 7.8
CC1(C)COc2nc3c(NCCc4ccc(O)c(-c5cc(F)cc(F)c5)c4)nc(-c4cncc(F)c4)nc3n21 [Example 12] | 12 nM | 7.6
CC1(C)COc2nc3c(NCCc4c[nH]c5ccccc45)nc(-c4cncc(C#N)c4)nc3n21 [Example 92] | 33 nM | 2.6
CC1(C)COc2nc3c(NCCc4ccc(O)c(-c5ccccc5Cl)c4)nc(-c4cncc(F)c4)nc3n21 [Example 5] | 36 nM | 5.1
CC1(C)COc2nc3c(NCCc4ccc(O)c(-c5cccc(C#N)c5)c4)nc(-c4cncc(C#N)c4)nc3n21 [Example 59] | 2.5 nM | 5.7
CC1(C)COc2nc3c(NCCc4ccc(O)c(-c5ccc(F)cc5)c4)nc(-c4cncc(F)c4)nc3n21 [Example 4] | 5 nM | 6.7
